Source: paper PMC8463110 (Bioorganic & medicinal chemistry, 2013)

What was measured:
[1] = system: behavioral and neurotoxic effects of cocaine in mice; conditions: cited from earlier work
mice = conditions: ref unpublished finding, R.R. Matsumoto, Morgantown, WV; cited from earlier work
human μ opioid receptor = human μ opioid receptor (Homo sapiens, UniProt P35372); test: Opioid receptor binding, [3H]DAMGO displacement, CHO cell membranes; conditions: 1.3 nM [3H]DAMGO, 120 min 25 °C
[2] = system: cocaine-induced convulsions in Swiss Webster mice; test: Cocaine-induced convulsions; assay type: in vivo; conditions: 30 mg/kg ip (highest dose tested), 15 min before cocaine 70 mg/kg ip, p < 0.05 Fisher's exact test

Chain of human μ opioid receptor (P35372 whole entry): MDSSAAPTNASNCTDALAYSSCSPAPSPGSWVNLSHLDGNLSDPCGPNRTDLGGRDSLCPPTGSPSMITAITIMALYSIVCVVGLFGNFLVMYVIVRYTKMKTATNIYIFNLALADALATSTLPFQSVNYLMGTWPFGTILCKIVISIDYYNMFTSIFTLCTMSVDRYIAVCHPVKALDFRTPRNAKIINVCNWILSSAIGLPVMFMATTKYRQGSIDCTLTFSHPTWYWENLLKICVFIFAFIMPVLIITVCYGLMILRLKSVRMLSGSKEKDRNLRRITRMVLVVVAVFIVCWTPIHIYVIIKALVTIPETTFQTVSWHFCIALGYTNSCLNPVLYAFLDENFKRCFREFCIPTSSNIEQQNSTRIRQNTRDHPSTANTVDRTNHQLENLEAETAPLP

Compound	Effect on behavioral and neurotoxic effects of cocaine [1]	Therapeutic window / deaths at supratherapeutic doses (mice)	Opioid binding Ki ± SEM, μ (human μ opioid receptor)	Attenuation of cocaine-induced convulsions [2]
c1ccc(CCN2CCCCC2)cc1 [AC927, N-phenethylpiperidine]	attenuated the behavioral and neurotoxic effects of cocaine in mice	relatively narrow therapeutic window, which can result in deaths in mice at supratherapeutic doses		
CN(CCc1ccccc1)[C@H]1CCCC[C@@H]1O (relative stereo) [Compound 6, trans-2-(Methyl(phenethyl)amino)cyclohexanol]			no affinity	significant attenuation of cocaine-induced convulsions
